Data from patent publication US9511134B2, “Inducing immune responses to influenza virus using polypeptide and nucleic acid compositions” (priority 2006, dated 2016).
Where “and” joins values, the source holds several entries; their conditions need not be identical. Equal values may be shown once. Read-outs that look alike come from different tables or passages of the source. Where no end group is shown, it is not given here.

Tests used:
[1] = system: CD4+ PBMC; assay type: cell-based, human; settings: IFNγ ELISPOT, CD8-depleted; for Human influenza epitope-specific immune response, donor 3501: PBMC rested five days
[2] = target: DRB1*0405 (Homo sapiens, UniProt P01903+P01911, A100R/A169T/D86S/F76Y/I96L/K127E/L162R/M171V/N62H/P40V/Q125Y/R42H/S133A/S149N/S66Y/V115G/V209L/W38E); assay: biochemical; assay type: binding; settings: read-out: IC50 nM to purified HLA DRB1*0405
[3] = target: T1, DRB1*0401 (Homo sapiens, UniProt P01903+P01911, A100K/A169T/F76Y/I96L/K127E/L162R/M171V/N62H/P40V/Q125Y/R42H/S133A/S149N/S66Y/V115G/V209L/W38E); assay: biochemical; assay type: binding; settings: read-out: IC50 nM to purified HLA DRB1*0401
T1 construct: made in house; host or cells: EBV-transformed homozygous human B cell lines, transfected fibroblasts or single-allele 721.221 transfectants

[4] = target: T2, DRB1*0101 (Homo sapiens, UniProt P01903+P01911, A100R/D57E/F55L/F60I/F76Y/I96L/L162R/M171V/P40L/Q125E/R42F/V115G/Y59C); assay: biochemical; assay type: binding
T2 construct: made in house; host or cells: EBV-transformed homozygous human B cell lines, transfected fibroblasts or single-allele 721.221 transfectants

[5] = target: DRB1*0404 (Homo sapiens, UniProt P01903+P01911, A100R/A169T/F76Y/I96L/K127E/L162R/M171V/N62H/P40V/Q125Y/R42H/S133A/S149N/S66Y/V209L/W38E); assay: biochemical; assay type: binding; settings: IC50 nM to purified HLA DRB1*0404
[6] = five day expansion with peptide pool

Compound: CC[C@H](C)[C@H](NC(=O)[C@H](CCC(=O)O)NC(=O)[C@H](CCCNC(=N)N)NC(=O)[C@H](CCCCN)NC(=O)[C@H](CC(C)C)NC(=O)[C@H](CCCCN)NC(=O)[C@H](CCCNC(=N)N)NC(=O)[C@@H](N)Cc1ccc(O)cc1)C(=O)N[C@H](C(=O)N[C@@H](Cc1ccccc1)C(=O)N[C@@H](Cc1c[nH]cn1)C(=O)NCC(=O)N[C@@H](C)C(=O)N[C@@H](CCCCN)C(=O)N[C@@H](CCC(=O)O)C(=O)O)[C@@H](C)O [Flu.M1.103]
- Human influenza epitope-specific immune response, donor 716 [1, 6]: Positive (Donors were considered positive for a peptide if the number of spots was over 3 times background as determined by responses to irrelevant peptides (non influenza))
- Human influenza epitope-specific immune response, donor AC08 [1, 6]: Positive (Donors were considered positive for a peptide if the number of spots was over 3 times background as determined by responses to irrelevant peptides (non influenza))

Compound: CC[C@H](C)[C@H](NC(=O)[C@H](CCCNC(=N)N)NC(=O)[C@H](C)NC(=O)[C@H](CCCNC(=N)N)NC(=O)[C@H](CO)NC(=O)[C@@H](N)C(C)C)C(=O)N[C@@H](CC(=O)O)C(=O)N[C@@H](C)C(=O)N[C@@H](CCCNC(=N)N)C(=O)N[C@H](C(=O)N[C@@H](CC(=O)O)C(=O)N[C@@H](Cc1ccccc1)C(=O)N[C@@H](CCC(=O)O)C(=O)N[C@@H](CO)C(=O)NCC(=O)O)[C@@H](C)CC [Flu.PB1.722]
- IC50 [2]: 3010 nM

Compound: GSYFFGDNAEEYDN [Flu.NP.488]
- IC50 [3]: 1950 nM
- IC50 [2]: 65 nM

Compound: CC[C@H](C)[C@H](NC(=O)[C@H](CC(C)C)NC(=O)[C@H](C)NC(=O)[C@H](CO)NC(=O)[C@H](CCCNC(=N)N)NC(=O)[C@H](C)NC(=O)[C@H](CC(C)C)NC(=O)[C@H](Cc1ccccc1)NC(=O)[C@@H](NC(=O)[C@H](CC(C)C)NC(=O)[C@@H](N)CC(=O)O)[C@@H](C)CC)C(=O)N[C@@H](CC(C)C)C(=O)N[C@@H](CCCNC(=N)N)C(=O)NCC(=O)N[C@@H](CO)C(=O)O [Flu.NP.258]
- Human influenza epitope-specific immune response, donor 6018 [1, 6]: Positive (Donors were considered positive for a peptide if the number of spots was over 3 times background as determined by responses to irrelevant peptides (non influenza))

Compound: CSCC[C@H](NC(=O)[C@H](CO)NC(=O)[C@@H](NC(=O)[C@H](Cc1ccccc1)NC(=O)[C@H](CC(N)=O)NC(=O)[C@@H](N)C(C)C)C(C)C)C(=O)N[C@@H](CCC(=O)O)C(=O)N[C@@H](Cc1ccccc1)C(=O)N[C@@H](CO)C(=O)N[C@@H](CC(C)C)C(=O)N[C@H](C(=O)N[C@@H](CC(=O)O)C(=O)N1CCC[C@H]1C(=O)N[C@@H](CCCNC(=N)N)C(=O)N[C@@H](CC(C)C)C(=O)O)[C@@H](C)O [Flu.PA.521]
- IC50 [2]: 7700 nM

Compound: CSCC[C@H](NC(=O)[C@H](CO)NC(=O)[C@H](Cc1ccccc1)NC(=O)[C@H](CC(N)=O)NC(=O)[C@H](C)NC(=O)[C@@H](NC(=O)[C@H](Cc1ccccc1)NC(=O)CNC(=O)[C@@H](N)Cc1ccc(O)cc1)C(C)C)C(=O)N[C@@H](CCC(=O)O)C(=O)N[C@@H](CC(C)C)C(=O)N1CCC[C@H]1C(=O)N[C@@H](CO)C(=O)N[C@@H](Cc1ccccc1)C(=O)NCC(=O)O [Flu.PB1.502]
- Human influenza epitope-specific immune response, donor 3501 [1]: Positive (Donors were considered positive for a peptide if the number of spots was over 3 times background as determined by responses to irrelevant peptides (non influenza))

Compound: CC[C@H](C)[C@H](NC(=O)[C@H](CC(C)C)NC(=O)[C@H](CCC(=O)O)NC(=O)[C@H](CCSC)NC(=O)[C@@H](NC(=O)[C@H](CCSC)NC(=O)[C@@H](NC(=O)CNC(=O)[C@@H](N)C(C)C)[C@@H](C)O)C(C)C)C(=O)N[C@@H](CCCNC(=N)N)C(=O)N[C@@H](CCSC)C(=O)N[C@H](C(=O)N[C@@H](CCCCN)C(=O)N[C@@H](CCCNC(=N)N)C(=O)NCC(=O)O)[C@@H](C)CC [Flu.NP.189]
- Human influenza epitope-specific immune response, donor 753 [1, 6]: Positive (Donors were considered positive for a peptide if the number of spots was over 3 times background as determined by responses to irrelevant peptides (non influenza))
- Human influenza epitope-specific immune response, donor 6018 [1, 6]: Positive (Donors were considered positive for a peptide if the number of spots was over 3 times background as determined by responses to irrelevant peptides (non influenza))
- Human influenza epitope-specific immune response, donor AC08 [1, 6]: Positive (Donors were considered positive for a peptide if the number of spots was over 3 times background as determined by responses to irrelevant peptides (non influenza))

Compound: CSCC[C@H](NC(=O)[C@H](Cc1c[nH]c2ccccc12)NC(=O)[C@@H](NC(=O)[C@H](CC(C)C)NC(=O)[C@H](CCC(N)=O)NC(=O)[C@H](CO)NC(=O)[C@@H](N)CCCCN)C(C)C)C(=O)N[C@@H](C)C(=O)N[C@@H](CS)C(=O)N[C@@H](Cc1c[nH]cn1)C(=O)N[C@@H](CO)C(=O)N[C@@H](C)C(=O)N[C@@H](C)C(=O)N[C@@H](Cc1ccccc1)C(=O)N[C@@H](CCC(=O)O)C(=O)O [Flu.NF.328]
- Human influenza epitope-specific immune response, donor 753 [1, 6]: Positive (Donors were considered positive for a peptide if the number of spots was over 3 times background as determined by responses to irrelevant peptides (non influenza))

Compound: CC[C@H](C)[C@H](NC(=O)[C@H](C)NC(=O)CNC(=O)[C@@H](N)CCC(=O)O)C(=O)N[C@H](C(=O)NCC(=O)N[C@@H](CCC(=O)O)C(=O)N[C@H](C(=O)N[C@@H](CO)C(=O)N1CCC[C@H]1C(=O)N[C@@H](CC(C)C)C(=O)N1CCC[C@H]1C(=O)N[C@@H](CO)C(=O)N[C@@H](CC(C)C)C(=O)N1CCC[C@H]1C(=O)O)[C@@H](C)CC)C(C)C [Flu.NS1.156]
- Human influenza epitope-specific immune response, donor 3501 [1]: Positive (Donors were considered positive for a peptide if the number of spots was over 3 times background as determined by responses to irrelevant peptides (non influenza))
- IC50 ([3]; Table 4): 48 nM
- IC50 [3]: 48 nM and 27 nM
- IC50 ([4]; IC50 nM to purified HLA DRB1*0101): 85 nM
- IC50 ([4]; IC50 nM to purified HLA DRB1*0101, Table 4): 85 nM
- IC50 [5]: 13 nM

Compound: CSCC[C@H](NC(=O)[C@H](C)NC(=O)[C@H](CCC(N)=O)NC(=O)[C@@H](NC(=O)[C@H](CCSC)NC(=O)[C@H](CCC(N)=O)NC(=O)[C@H](CCCNC(=N)N)NC(=O)[C@H](C)NC(=O)[C@H](CCC(N)=O)NC(=O)[C@H](CO)NC(=O)[C@H](C)NC(=O)[C@@H](NC(=O)[C@H](CCC(=O)O)NC(=O)[C@H](CCSC)NC(=O)[C@H](C)N)C(C)C)C(C)C)C(=O)O [Flu.M1.205]
- Human influenza epitope-specific immune response, donor 6018 [1, 6]: Positive (Donors were considered positive for a peptide if the number of spots was over 3 times background as determined by responses to irrelevant peptides (non influenza))
- Human influenza epitope-specific immune response, donor AC02 [1, 6]: Positive (Donors were considered positive for a peptide if the number of spots was over 3 times background as determined by responses to irrelevant peptides (non influenza))

Compound: CSCC[C@H](NC(=O)CNC(=O)[C@H](CCSC)NC(=O)[C@@H](N)CCSC)C(=O)N[C@@H](Cc1ccccc1)C(=O)N[C@@H](CC(N)=O)C(=O)N[C@@H](CCSC)C(=O)N[C@@H](CC(C)C)C(=O)N[C@@H](CO)C(=O)N[C@H](C(=O)N[C@H](C(=O)N[C@@H](CC(C)C)C(=O)NCC(=O)N[C@H](C(=O)N[C@@H](CO)C(=O)O)C(C)C)C(C)C)[C@@H](C)O [Flu.PB1.411]
- Human influenza epitope-specific immune response, donor 3501 [1]: Positive (Donors were considered positive for a peptide if the number of spots was over 3 times background as determined by responses to irrelevant peptides (non influenza))
- Human influenza epitope-specific immune response, donor 716 [1, 6]: Positive (Donors were considered positive for a peptide if the number of spots was over 3 times background as determined by responses to irrelevant peptides (non influenza))
- Human influenza epitope-specific immune response, donor 753 [1, 6]: Positive (Donors were considered positive for a peptide if the number of spots was over 3 times background as determined by responses to irrelevant peptides (non influenza))
- Human influenza epitope-specific immune response, donor 6018 [1, 6]: Positive (Donors were considered positive for a peptide if the number of spots was over 3 times background as determined by responses to irrelevant peptides (non influenza))

Compound: CC[C@H](C)[C@H](NC(=O)[C@H](CCC(N)=O)NC(=O)CNC(=O)[C@H](C)N)C(=O)N[C@@H](CO)C(=O)N[C@H](C(=O)N[C@@H](CCC(N)=O)C(=O)N1CCC[C@H]1C(=O)N[C@H](C(=O)N[C@@H](Cc1ccccc1)C(=O)N[C@@H](CO)C(=O)N[C@H](C(=O)N[C@@H](CCC(N)=O)C(=O)N[C@@H](CCCNC(=N)N)C(=O)N[C@@H](CC(N)=O)C(=O)O)C(C)C)[C@@H](C)O)C(C)C [Flu.NP.406]
- Human influenza epitope-specific immune response, donor 3501 [1]: Positive (Donors were considered positive for a peptide if the number of spots was over 3 times background as determined by responses to irrelevant peptides (non influenza))

Compound: CC[C@H](C)[C@H](NC(=O)CNC(=O)[C@H](CCC(=O)O)NC(=O)[C@H](Cc1c[nH]cn1)NC(=O)[C@H](CC(N)=O)NC(=O)[C@@H]1CCCN1C(=O)[C@H](C)NC(=O)[C@H](CC(N)=O)NC(=O)[C@@H](NC(=O)[C@@H](NC(=O)[C@H](CC(C)C)NC(=O)[C@H](C)NC(=O)[C@H](Cc1ccccc1)NC(=O)[C@@H](N)CC(=O)O)[C@@H](C)CC)C(C)C)C(=O)N[C@@H](CCC(N)=O)C(=O)O [Flu.PB1.449]
- Human influenza epitope-specific immune response, donor 3501 [1]: Positive (Donors were considered positive for a peptide if the number of spots was over 3 times background as determined by responses to irrelevant peptides (non influenza))
